Test results reported in BindingDB's records for doi:10.1021/jm990447m (Metabasis Therapeutics, 2000).

Experiment: Evaluated for the inhibition of porcine heart or human L-type Adenosine 5'-monophosphate deaminase (AMPDA)

Compound | Ki [µM]
CCCCCCCn1cnc2c1N=CNCC2O (stereo unspecified) [3-Heptyl-3,6,7,8-tetrahydro-imidazo[4,5-d][1,3]diazepin-8-ol] | 10
CCCCCCCCn1cnc2c1N=CNCC2O (stereo unspecified) [3-Octyl-3,6,7,8-tetrahydro-imidazo[4,5-d][1,3]diazepin-8-ol 0.25H2O] | 18
N#CCCCCCCn1cnc2c1N=CNCC2O (stereo unspecified) [7-(8-Hydroxy-7,8-dihydro-6H-imidazo[4,5-d][1,3]diazepin-3-yl)-heptanenitrile] | 170

Further lines, results first:

Ki [µM] | Compound
20 | COC(=O)CCCCCCCn1cnc2c1N=CNCC2O (stereo unspecified) [8-(8-Hydroxy-7,8-dihydro-6H-imidazo[4,5-d][1,3]diazepin-3-yl)-octanoic acid methyl ester]
8 | O=C(O)CCCCCCCn1cnc2c1N=CNCC2O (stereo unspecified) [8-(8-Hydroxy-7,8-dihydro-6H-imidazo[4,5-d][1,3]diazepin-3-yl)-octanoic acid]
85 | O=C(O)CCCOCn1cnc2c1N=CNCC2O (stereo unspecified) [Sodium; 4-(8-hydroxy-7,8-dihydro-6H-imidazo[4,5-d][1,3]diazepin-3-ylmethoxy)-butyrate H2O]
